In publication PMC3480796 (Indian Journal of Pharmacology, 2012):
pIC50: −log10 of the molar value.

Target: cystic fibrosis transmembrane conductance regulator (CFTR) (Homo sapiens, UniProt P13569)
Assay: apical chloride current
Format: cell-based

cystic fibrosis transmembrane conductance regulator (CFTR), sequence (P13569 whole entry): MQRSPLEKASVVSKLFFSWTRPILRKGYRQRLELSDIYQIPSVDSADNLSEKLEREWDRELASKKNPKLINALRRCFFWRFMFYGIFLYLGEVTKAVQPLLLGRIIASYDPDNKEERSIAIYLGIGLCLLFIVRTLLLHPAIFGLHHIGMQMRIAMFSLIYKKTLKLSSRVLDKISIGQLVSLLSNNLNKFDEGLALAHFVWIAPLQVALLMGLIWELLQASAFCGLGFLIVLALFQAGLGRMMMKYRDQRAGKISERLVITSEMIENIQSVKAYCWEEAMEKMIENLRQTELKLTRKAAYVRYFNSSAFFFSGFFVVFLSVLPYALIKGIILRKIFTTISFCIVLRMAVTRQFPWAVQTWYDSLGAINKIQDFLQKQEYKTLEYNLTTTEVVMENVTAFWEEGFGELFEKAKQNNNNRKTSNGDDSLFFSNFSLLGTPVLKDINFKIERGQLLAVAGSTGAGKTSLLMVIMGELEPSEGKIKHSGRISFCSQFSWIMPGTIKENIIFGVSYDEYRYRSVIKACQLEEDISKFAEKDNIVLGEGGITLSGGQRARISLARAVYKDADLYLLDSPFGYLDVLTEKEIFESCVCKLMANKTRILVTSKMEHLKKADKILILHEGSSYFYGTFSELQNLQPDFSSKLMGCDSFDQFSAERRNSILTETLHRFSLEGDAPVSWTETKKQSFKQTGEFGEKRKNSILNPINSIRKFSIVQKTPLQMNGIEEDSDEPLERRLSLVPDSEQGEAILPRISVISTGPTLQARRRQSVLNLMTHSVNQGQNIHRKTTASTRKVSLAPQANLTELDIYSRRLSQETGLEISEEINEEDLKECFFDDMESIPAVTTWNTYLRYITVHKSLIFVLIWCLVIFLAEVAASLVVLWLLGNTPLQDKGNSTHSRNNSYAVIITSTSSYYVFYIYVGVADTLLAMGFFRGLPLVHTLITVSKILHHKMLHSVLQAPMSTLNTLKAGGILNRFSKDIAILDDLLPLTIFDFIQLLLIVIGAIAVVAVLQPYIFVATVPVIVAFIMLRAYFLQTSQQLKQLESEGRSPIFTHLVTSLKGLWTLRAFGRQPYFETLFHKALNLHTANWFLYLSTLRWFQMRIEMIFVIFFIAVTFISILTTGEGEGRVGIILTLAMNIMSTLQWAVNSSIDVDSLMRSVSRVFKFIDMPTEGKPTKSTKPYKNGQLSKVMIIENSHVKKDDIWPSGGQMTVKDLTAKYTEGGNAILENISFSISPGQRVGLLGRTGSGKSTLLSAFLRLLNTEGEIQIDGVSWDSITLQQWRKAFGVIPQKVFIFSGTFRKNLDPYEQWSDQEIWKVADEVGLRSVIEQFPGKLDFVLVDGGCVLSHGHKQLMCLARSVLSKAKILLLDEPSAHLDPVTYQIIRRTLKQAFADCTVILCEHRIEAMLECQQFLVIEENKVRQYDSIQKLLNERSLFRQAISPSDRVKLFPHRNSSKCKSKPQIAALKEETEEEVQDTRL

Compound `CCOC(=O)CSc1nc2ccccc2c(=O)n1-c1ccccc1C` [DQA, ethyl 2-(4-oxo-3-o-tolyl-3,4-dihydroquinazolin-2-ylthio)acetate] has a pIC50 of roughly 4.70.
